Patent US20130023496A1, “Combination Therapy Comprising A CCR5 Antagonist, A HIV-1 Protease Inhibtior and a Pharmacokinetic Enhancer” (priority 2010, published 2013)

Columns and labels:
HIV-1 = conditions: 48 weeks; atazanavir 300 mg/ritonavir 100 mg QD with Truvada versus lopinavir/r; cited from earlier work
CCR5-tropic HIV = assay: Randomized controlled study of atazanavir/ritonavir QD with maraviroc or Truvada in treatment-naïve patients, 24 weeks; format: in vivo, human; conditions: with atazanavir 300 mg QD and ritonavir 100 mg QD
From the text: To ascertain whether a once daily, nucleoside-sparing regimen using a CCR5 antagonist could be safely and efficaciously administered to HIV-positive patients infected with CCR5-tropic HIV, a randomized, controlled study is being conducted.

CCR5 tropic HIV-1 virus = conditions: maraviroc 300 mg QD arm, preliminary results; cited from earlier work

Compound | non-inferiority primary endpoint of undetectable viral load (HIV-1 RNA less than 50 copies/mL) (HIV-1) | increase in CD4+ (CCR5-tropic HIV; after 24 weeks) | percentage of patients who achieved less than 50 copies/mL (CCR5-tropic HIV; week 24, HIV-1 RNA) | percentage of patients who achieved less than 400 copies/mL (CCR5-tropic HIV; week 24, HIV-1 RNA) | non-inferiority versus the efavirenz arm (CCR5 tropic HIV-1 virus)
COC(=O)N[C@H](C(=O)N[C@@H](Cc1ccccc1)[C@@H](O)CN(Cc1ccc(-c2ccccn2)cc1)NC(=O)[C@@H](NC(=O)OC)C(C)(C)C)C(C)(C)C [atazanavir] | met the non-inferiority primary endpoint |  |  |  | 
N-{(1S)-3-[3-(3-isopropyl-5-methyl-4H-1,2,4-triazol-4-yl)-exo-8-azabicyclo[3.2.1]oct-8-yl]-1-phenylpropyl}-4, 4-difluorocyclohexanecarboxamide [maraviroc] |  | 195 cells | 80% | 90% | did not meet the regulatory prespecified criteria for non-inferiority
